Data taken from article PMC10730845, “Endoxifen downregulates AKT phosphorylation through protein kinase C beta 1 inhibition in ERα+ breast cancer” (NPJ Breast Cancer, 2023).

What was measured:
MDAMB231 cells = assay: IncuCyte Annexin V apoptosis assay, MDAMB231; type: cell-based, human; settings: CSS medium, 48 h, 0–10 µM tested; no apoptosis below the highest concentration
Protocol: Supplementary Figure 8. ENDX neither induces apoptosis nor inhibit growth of ER - breast cancer cells. a, MDAMB231 cells grown in CSS medium were co -treated with vehicle control or the indicated ENDX concentrations, IncuCyte Annexin V green and NucLight red reagents in CSS medium for 48 hours. The apoptosis graphs are presented as the green object count […]
software. Cells were plated at a density of 2000 cells per well. Data represents the mean of six

PKC nu (PKCn/PRKD3) = PKC nu (PKCn/PRKD3) (Homo sapiens, UniProt O94806); assay: In vitro kinase assay, PKC nu; type: biochemical; settings: 10 μM ATP
Source text: (§1) Supplementary Table 4. In vitro kinase assay showing the IC 50 concentration of ENDX and
(§2) of the 12 PKC family members.
(§3) (1 picture or pasted object on this page, not shown here)

PKC eta (PKCh) = PKC eta (PKCh) (Homo sapiens, UniProt P24723); assay: In vitro kinase assay, PKC eta; type: biochemical; settings: 10 μM ATP
Source text: as §1, §2, §3

[1] = tested on: PKCβ1 and AKT^Ser473 phosphorylation in HEK293F cells; assay: Immunoblot of PKCβ1 and pAKT^Ser473, HEK293F; type: cell-based, human; settings: 5 µM, 2 h pretreatment, 100 nM insulin 1 h
Source text: To determine whether the observed effects of ENDX on PKCβ1 degradation and AKT^Ser473 phosphorylation inhibition are dependent on the presence of ERα, we additionally evaluated ENDX effects on PKCβ1 degradation and AKT^Ser473 phosphorylation in the ER negative (ER-) MDAMB231 breast cancer cells and nonbreast HEK293F cells, a human embryonic kidney cell line, both of which express higher amounts of PKCβ1 compared to ERα+ MCF7AC1 cells (Supplementary Fig. 5a). […] To determine whether the addition of ERα to the MDAMB231 cell line could facilitate ENDX effects on PKCβ1, we performed doxycycline (dox)-induced ERα protein expression in MDAMB231 cells and evaluated ENDX effects on PKCβ1 using the above-mentioned experimental conditions. […] Additionally, we pretreated MDAMB231 and HEK293F cells with or without 5 µM ENDX for 1 h followed by 0 or 200 nM PMA treatment for 20 min and evaluated effects on PKCβ1.
Supplementary Figure 5. Effects of ENDX on PKCβ1, phospho -PKCB1Ser661 and phospho-AKTSer473 expression levels in ERα- breast cancer cells. a, Basal expression of PKCβ1 and ERα in the indicated cell lines. […]

MDAMB436 cells = assay: Crystal violet growth assay, MDAMB436; type: cell-based, human; settings: day seven
Source text: Supplementary Figure 8. […]
ANOVA. b, Effects of ENDX on cell proliferation at the indicated concentrations on day seven of
treatment. […]

MCF7AC1 cells = assay: IncuCyte Annexin V apoptosis assay, MCF7AC1; type: cell-based, human; settings: CSS medium, 48 h
Protocol: MCF7AC1 and T47D-LTED cells were plated at a density of 2000 cells per well in CSS medium for 24 h. Cells were then co-treated for 48 h with vehicle or drug, IncuCyte Annexin V green reagent (#4642, 1:300), an early-stage apoptosis marker, and IncuCyte NucLight rapid red reagent (#4717, 1:500), a dye that stains all cell nuclei red, in CSS medium. MCF7AC1^caAKT cells were plated at a cell density of 2000 cells per well in CSS medium in the absence or presence of cumate for 48 h and then co-treated with vehicle or drug, Annexin V green and NucLight rapid red reagents in the absence or presence of cumate for an additional 48 h in CSS medium.

PKC eta (PKCh), sequence (P24723 whole entry): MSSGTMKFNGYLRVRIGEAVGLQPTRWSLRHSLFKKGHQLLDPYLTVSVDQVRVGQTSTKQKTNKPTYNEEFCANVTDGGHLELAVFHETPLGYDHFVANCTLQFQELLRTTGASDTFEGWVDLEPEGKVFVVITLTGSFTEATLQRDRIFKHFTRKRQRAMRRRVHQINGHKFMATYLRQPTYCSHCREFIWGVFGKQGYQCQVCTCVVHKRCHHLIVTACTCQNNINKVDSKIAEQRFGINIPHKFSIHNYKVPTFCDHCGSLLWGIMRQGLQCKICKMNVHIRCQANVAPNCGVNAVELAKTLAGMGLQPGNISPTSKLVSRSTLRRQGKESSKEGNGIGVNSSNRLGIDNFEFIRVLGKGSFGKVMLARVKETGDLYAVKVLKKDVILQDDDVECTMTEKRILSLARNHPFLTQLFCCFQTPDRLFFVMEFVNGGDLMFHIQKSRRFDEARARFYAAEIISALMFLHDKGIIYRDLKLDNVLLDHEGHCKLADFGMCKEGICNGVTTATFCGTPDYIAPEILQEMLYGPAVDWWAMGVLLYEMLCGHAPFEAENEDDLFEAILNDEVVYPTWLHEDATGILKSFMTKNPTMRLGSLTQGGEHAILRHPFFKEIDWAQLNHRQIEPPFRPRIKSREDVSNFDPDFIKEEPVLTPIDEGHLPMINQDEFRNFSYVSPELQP
PKC nu (PKCn/PRKD3), sequence (O94806 whole entry): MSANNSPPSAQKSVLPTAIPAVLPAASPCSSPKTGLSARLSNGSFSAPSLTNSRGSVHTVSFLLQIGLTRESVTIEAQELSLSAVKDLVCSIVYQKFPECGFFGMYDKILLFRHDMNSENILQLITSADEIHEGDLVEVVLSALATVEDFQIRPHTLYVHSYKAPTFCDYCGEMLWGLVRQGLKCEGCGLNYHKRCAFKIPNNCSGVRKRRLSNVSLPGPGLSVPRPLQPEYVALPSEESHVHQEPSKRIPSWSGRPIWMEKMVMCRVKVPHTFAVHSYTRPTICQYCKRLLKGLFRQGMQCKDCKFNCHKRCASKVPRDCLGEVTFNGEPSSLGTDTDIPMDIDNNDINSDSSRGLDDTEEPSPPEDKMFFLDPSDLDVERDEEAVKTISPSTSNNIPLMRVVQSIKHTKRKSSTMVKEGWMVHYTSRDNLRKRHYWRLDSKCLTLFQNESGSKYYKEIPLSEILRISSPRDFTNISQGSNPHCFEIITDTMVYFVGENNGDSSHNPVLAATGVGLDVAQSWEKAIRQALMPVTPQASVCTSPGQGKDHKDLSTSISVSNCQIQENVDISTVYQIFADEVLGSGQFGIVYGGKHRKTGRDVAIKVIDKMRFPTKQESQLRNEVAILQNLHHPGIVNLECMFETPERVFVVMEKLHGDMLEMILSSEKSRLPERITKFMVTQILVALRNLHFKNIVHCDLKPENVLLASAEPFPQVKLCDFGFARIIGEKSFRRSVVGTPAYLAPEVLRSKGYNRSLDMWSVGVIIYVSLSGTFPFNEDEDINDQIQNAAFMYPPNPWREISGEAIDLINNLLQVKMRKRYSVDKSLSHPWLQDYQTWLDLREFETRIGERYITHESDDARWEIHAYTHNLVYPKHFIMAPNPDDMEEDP

SMILES: CC/C(=C(\c1ccc(O)cc1)c1ccc(OCCNC)cc1)c1ccccc1 [ENDX, Z-endoxifen]
- Concentration at which apoptosis was induced (MDAMB231 cells): 10 µM
- IC50 (PKC nu (PKCn/PRKD3)): 26.4 µM
- IC50 (PKC eta (PKCh)): > 50 µM
- Effect on PKCβ1 protein levels [1]: did not impact PKCβ1 protein levels
- Effect on insulin induced AKT^Ser473 phosphorylation [1]: did not inhibit this phosphorylation
- Concentrations at which growth was inhibited (MDAMB436 cells): > 7.5 µM
- Concentrations that induced apoptosis (MCF7AC1 cells; 0 to 10 µM tested): ≥ 2.5 µM
- Effect on apoptosis (MCF7AC1 cells; ENDX 5 µM, TAM 0.1 µM, ICI 0.1 µM): induced apoptosis
